# In ChEMBL document CHEMBL1201862, “PubChem BioAssay data set” (2004):
# Active and inactive are the calls of the source.
# Tests used:
# [1] = biological target: T1, Corticotropin-releasing factor receptor 2/Corticotropin-releasing factor-binding protein (Homo sapiens, UniProt P24387+Q13324); experiment: Dose Response confirmation of uHTS hits for small molecule antagonists of the CRF-binding protein and CRF-R2 receptor complex.; assay type: functional; settings: read-out: IC50_Mean
# T1 sequence (Q13324 whole entry): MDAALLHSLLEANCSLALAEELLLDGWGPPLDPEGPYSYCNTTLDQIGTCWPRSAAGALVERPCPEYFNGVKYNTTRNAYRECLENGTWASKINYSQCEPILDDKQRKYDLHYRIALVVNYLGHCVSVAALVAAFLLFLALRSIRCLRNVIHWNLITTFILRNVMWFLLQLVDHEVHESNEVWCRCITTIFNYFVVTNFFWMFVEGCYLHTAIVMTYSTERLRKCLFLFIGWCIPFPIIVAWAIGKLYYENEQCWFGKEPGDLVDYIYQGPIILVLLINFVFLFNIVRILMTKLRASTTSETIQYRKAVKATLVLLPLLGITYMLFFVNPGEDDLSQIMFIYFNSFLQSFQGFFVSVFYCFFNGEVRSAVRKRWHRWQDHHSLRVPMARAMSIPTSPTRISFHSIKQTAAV
# T1 sequence (P24387 whole entry): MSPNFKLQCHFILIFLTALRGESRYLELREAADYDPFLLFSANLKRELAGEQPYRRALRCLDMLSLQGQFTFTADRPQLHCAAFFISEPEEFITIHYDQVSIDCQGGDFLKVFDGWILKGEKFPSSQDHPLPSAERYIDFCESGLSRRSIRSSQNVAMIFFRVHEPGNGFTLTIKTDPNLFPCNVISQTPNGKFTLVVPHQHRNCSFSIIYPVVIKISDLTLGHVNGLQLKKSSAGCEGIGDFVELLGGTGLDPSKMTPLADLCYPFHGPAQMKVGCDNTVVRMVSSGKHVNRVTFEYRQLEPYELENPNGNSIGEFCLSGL
# Streptokinase A = biological target: T2, Streptokinase A (Streptococcus pyogenes serotype M1, UniProt P10520); experiment: S. pyogenes streptokinase expression inhibitors, potency, dose response, plasminogen activation absorbance, OD405 (AID 1914); assay type: functional, Streptococcus pyogenes M1 GAS;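 further: secreted streptokinase activity via plasminogen activation per viability signal from cell pellet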
# T2 sequence (P10520 whole entry): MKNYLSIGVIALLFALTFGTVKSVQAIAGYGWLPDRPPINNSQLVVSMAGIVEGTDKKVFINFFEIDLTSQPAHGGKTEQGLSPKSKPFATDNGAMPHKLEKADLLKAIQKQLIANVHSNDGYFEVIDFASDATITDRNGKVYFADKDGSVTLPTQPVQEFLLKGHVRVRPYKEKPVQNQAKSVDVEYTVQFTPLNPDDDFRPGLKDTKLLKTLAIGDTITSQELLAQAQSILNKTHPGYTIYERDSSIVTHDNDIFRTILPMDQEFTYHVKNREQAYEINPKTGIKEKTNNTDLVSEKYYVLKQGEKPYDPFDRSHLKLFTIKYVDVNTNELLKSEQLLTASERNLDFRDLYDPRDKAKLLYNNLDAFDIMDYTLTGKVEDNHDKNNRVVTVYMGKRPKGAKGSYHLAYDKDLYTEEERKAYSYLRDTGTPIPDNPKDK
# Leucine aminopeptidase = biological target: T3, Leucine aminopeptidase (Plasmodium falciparum 3D7, UniProt Q8IL11); experiment: P. falciparum M17LAP inhibitors, primary screen, biochemical, fluorogenic H-Leu-NHMec substrate, 1536-well (AID 1619); assay type: functional
# T3 sequence (Q8IL11 whole entry): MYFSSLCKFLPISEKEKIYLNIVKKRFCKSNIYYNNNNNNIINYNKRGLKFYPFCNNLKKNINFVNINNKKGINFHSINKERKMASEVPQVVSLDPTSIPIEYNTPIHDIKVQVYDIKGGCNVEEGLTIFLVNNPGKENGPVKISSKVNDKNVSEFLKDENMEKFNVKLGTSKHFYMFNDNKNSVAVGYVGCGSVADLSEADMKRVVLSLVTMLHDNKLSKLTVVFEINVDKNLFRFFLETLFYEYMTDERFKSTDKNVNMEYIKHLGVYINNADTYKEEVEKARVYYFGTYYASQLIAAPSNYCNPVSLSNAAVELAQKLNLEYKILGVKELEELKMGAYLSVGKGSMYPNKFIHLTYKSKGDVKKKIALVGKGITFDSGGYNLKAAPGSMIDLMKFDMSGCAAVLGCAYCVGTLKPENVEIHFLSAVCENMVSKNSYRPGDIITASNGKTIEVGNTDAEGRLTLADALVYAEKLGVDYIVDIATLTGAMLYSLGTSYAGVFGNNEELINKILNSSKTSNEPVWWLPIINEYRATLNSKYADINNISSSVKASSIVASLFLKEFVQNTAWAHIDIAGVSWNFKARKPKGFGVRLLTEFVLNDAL
# [2] = biological target: T1, Corticotropin-releasing factor receptor 2/Corticotropin-releasing factor-binding protein; experiment: activators of CRF receptor 2 with binding protein – uHTS hits, confirmation (AID 602473); assay type: functional; settings: read-out: EC50_Mean
# [3] = HEp-2 cell cytotoxicity, dose response, cytotoxicity control for RSV inhibitor project, HTS (AID 2410); assay type: functional; settings: human respiratory syncytial virus
# [4] = cytotoxicity in HEK-293T cells, dose response, cytotoxicity control for BCR NF-kB inhibitor project, luminescence, B-cell screen hits (AID 489021); assay type: functional, cell-based;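 further: HEK-293T cells carrying an NF-kB luciferase reporter; cells exposed to compound for about 14 hours before viability readout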
# [5] = biological target: T4, Short transient receptor potential channel 4 (Mus musculus, UniProt Q9QUQ5); experiment: mouse TRPC4 channel inhibitors, dose response, cell-based, HEK293 TRPC4/mu-opioid, Fluo-4 calcium (AID 434942); assay type: functional;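 further: potency of inhibitors blocking the TRPC4 calcium response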
# T4 sequence (Q9QUQ5 whole entry): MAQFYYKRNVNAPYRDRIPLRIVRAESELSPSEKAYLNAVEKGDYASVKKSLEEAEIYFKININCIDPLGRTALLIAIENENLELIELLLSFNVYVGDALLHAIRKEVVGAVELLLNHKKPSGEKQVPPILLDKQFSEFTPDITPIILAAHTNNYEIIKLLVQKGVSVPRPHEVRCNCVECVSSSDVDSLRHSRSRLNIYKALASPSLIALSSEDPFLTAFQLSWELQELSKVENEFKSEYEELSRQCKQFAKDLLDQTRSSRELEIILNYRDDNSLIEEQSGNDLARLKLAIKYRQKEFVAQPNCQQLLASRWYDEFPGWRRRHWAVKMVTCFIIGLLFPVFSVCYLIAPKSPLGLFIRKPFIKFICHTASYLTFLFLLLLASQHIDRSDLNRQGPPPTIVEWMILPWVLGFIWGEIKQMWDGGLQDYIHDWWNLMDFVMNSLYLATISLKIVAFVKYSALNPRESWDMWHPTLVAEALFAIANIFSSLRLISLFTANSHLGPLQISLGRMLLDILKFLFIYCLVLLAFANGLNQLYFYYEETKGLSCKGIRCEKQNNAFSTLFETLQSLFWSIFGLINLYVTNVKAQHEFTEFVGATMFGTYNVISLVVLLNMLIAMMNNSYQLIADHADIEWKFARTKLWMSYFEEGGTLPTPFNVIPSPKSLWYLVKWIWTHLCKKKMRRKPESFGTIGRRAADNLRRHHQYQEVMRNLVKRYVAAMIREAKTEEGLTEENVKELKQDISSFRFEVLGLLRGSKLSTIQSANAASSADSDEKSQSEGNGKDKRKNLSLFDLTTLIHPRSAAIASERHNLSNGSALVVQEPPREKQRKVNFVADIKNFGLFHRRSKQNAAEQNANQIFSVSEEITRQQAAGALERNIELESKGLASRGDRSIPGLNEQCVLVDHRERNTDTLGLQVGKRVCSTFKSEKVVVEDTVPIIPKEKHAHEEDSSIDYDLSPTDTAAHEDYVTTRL
# [6] = biological target: T5, High affinity choline transporter 1 (Homo sapiens, UniProt Q9GZV3); experiment: CHT inhibitors, dose response, cell-based, 5-point CRC, membrane potential dye (AID 504840); assay type: functional
# T5 sequence (Q9GZV3 whole entry): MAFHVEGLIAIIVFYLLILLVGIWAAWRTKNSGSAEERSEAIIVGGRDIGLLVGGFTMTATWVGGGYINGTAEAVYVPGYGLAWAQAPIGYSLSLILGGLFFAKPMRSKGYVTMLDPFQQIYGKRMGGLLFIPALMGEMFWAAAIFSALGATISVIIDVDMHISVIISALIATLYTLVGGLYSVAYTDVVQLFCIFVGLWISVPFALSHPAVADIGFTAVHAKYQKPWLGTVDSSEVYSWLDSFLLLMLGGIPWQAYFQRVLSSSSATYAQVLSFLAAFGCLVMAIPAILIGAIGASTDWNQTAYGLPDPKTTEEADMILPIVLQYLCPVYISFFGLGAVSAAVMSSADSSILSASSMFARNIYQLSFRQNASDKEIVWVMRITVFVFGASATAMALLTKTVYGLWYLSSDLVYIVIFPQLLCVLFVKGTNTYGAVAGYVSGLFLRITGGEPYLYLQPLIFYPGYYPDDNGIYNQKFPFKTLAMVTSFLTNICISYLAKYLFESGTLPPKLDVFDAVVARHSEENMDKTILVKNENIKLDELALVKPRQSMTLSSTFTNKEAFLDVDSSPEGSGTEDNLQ
# [7] = Luminescence Cell-Based Dose Response HTS to Identify Inhibitors of 5'UTR Stem-Loop Driven Prion Protein mRNA Translation in H4 Neuroglioblastoma Cells. [Related pubchem assays: 1827 (Project Summary), 1813 (Primary HTS)]; assay type: functional
# [8] = inhibitors of SNCA 5'UTR-driven reporter translation, confirmation, H4 neuroglioma cells, luminescence (AID 1988); assay type: functional, cell-based
# [9] = inhibitors of firefly luciferase expression or activity, dose response, H4 neuroglioma cells, luminescence (AID 1990); assay type: functional, cell-based
# [10] = biological target: T6, Microphthalmia-associated transcription factor (Homo sapiens, UniProt O75030); experiment: TRPM1 promoter luciferase signal decrease, dose response, MITF inhibitor project, cell-based, SK-MEL-5, cherry-picked, set 3 (AID 493073); assay type: functional
# T6 sequence (O75030 whole entry): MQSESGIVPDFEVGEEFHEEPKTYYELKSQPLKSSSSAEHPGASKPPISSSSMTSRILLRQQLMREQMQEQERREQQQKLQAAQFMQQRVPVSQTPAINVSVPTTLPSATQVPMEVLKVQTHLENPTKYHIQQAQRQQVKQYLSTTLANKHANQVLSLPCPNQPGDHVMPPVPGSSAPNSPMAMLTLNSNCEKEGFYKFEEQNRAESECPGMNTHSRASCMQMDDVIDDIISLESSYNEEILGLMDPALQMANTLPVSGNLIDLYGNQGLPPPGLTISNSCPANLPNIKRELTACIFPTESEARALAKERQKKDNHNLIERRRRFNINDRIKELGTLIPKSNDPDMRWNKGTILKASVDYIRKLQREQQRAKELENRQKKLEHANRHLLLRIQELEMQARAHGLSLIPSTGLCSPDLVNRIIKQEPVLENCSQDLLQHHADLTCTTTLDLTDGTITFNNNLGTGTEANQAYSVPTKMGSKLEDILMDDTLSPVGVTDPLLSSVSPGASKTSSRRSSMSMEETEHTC
# [11] = biological target: T7, Polyadenylate-binding protein 1 (Homo sapiens, UniProt P11940); experiment: PABP1 MLLE–PAM2 interaction inhibitors, dose response, miRNA deadenylation inhibitor project, biochemical, fluorescence polarization, Cy5-PAM2 peptide, secondary (AID 602260); assay type: functional; settings: read-out: IC50_Mean
# [12] = microbe, parasite or virus in culture; assay type: functional; settings: Mycobacterium tuberculosis
# [13] = biological target: T7, Polyadenylate-binding protein 1; experiment: PABP1 MLLE–PAM2 binding inhibitor potency, dose response, biochemical, fluorescence polarization, FITC-PAM2 peptide (AID 602259); assay type: functional; settings: read-out: IC50_Mean
# T7 sequence (P11940 whole entry): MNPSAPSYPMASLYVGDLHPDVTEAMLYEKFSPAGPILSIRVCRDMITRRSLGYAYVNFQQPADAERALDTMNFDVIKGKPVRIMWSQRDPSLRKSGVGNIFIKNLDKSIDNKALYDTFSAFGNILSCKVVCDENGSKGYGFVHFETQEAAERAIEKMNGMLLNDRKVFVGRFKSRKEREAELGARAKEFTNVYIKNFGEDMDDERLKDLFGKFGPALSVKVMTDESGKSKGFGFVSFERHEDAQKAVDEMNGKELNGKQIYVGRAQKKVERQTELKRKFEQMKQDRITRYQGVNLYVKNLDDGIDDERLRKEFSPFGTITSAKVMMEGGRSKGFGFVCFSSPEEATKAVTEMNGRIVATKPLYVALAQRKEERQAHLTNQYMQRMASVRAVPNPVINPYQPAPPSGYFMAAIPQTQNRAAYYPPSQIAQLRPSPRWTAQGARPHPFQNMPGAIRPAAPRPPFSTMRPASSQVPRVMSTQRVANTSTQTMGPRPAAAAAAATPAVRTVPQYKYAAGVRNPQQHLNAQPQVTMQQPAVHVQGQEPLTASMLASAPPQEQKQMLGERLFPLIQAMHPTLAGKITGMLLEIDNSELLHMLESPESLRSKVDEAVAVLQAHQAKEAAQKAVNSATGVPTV
smiles,measurement,setting,value
Cc1cc(=O)[nH]c(SCC(=O)Nc2ccc(Br)cc2)c1C#N,IC50,[1],2.16 µM (active)
same,EC50,Streptokinase A,> 150 µM (not active)
same,IC50,Leucine aminopeptidase,1.48 µM (active)
same,EC50,[2],8.83 µM (active)
O=C(c1cccc(N2C(=O)C3C4C=CC(C4)C3C2=O)c1)N1CCN(c2ccccc2Cl)CC1 (configuration not stated),CC50,[3],> 50 µM (active)
same,IC50,cells,32.6 µM (active)
CCC(CO)Oc1cc(NCc2ccccc2O)c2ncn(C(C)C)c2c1 (configuration not stated),IC50,[4],> 80 µM (inactive)
O=C(c1ccc(Br)o1)N1CCN(c2ccc3nnc(-c4ccccc4)n3n2)CC1,IC50,cells,48.6 µM (active)
C=CCSc1nc2c(c(=O)[nH]c(=O)n2C)n1C/C=C(/C)Cl,CC50,[3],37.2 µM (active)
same,EC50,[5],2.37 µM (active)
Oc1[nH]c2ccccc2c1N=Nc1nc(Nc2ccccc2)nc(N2CCOCC2)n1,IC50,[4],50.1 µM (inactive)
Cc1ccccc1NC(=O)C1CCCN1S(=O)(=O)c1cccc2cccnc12 (configuration not stated),CC50,[3],> 50 µM (active)
same,IC50,cells,19.5 µM (active)
NS(=O)(=O)c1ccc(CCNCc2ccccc2OCc2ccc(Cl)cc2)cc1,IC50,[6],11.2 µM (active)
same,EC50,[5],6.68 µM (active)
Cc1nc2cc(-c3ccc(Cl)cc3)nn2c(C)c1CCC(=O)NCc1ccco1,IC50,[4],> 80 µM (inactive)
CN(C)C(CNC(=O)c1oc2ccccc2c1CSc1nc[nH]n1)c1ccco1 (configuration not stated),EC50,[5],8.41 µM (active)
O=C(/C=C/c1ccccc1)Nc1sc2c(c1C(=O)O)CCC2,CC50,[3],19.7 µM (active)
same,IC50,cells,26.1 µM (active)
Cc1ccc(NC(=O)CNc2ccccc2CN(C)C2CCCCC2)cc1,EC50,[5],2.99 µM (active)
CC(C)OCCCNC(=O)c1c(N)n(/N=C/c2ccccn2)c2nc3ccccc3nc12,IC50,[4],> 80 µM (inactive)
O=C(CCCN1C(=O)S/C(=C\c2ccccc2)C1=O)NNC(=O)c1ccccc1O,EC50,[7],15.2 µM (active)
same,EC50,[8],157 nM (active)
same,IC50,[4],> 80 µM (inactive)
same,EC50,[9],< 100 nM (active)
same,AC50,[10],33.9 µM (active)
O=C(O)c1cccc(COc2cccc3ccccc23)c1,CC50,[3],31.1 µM (active)
same,IC50,cells,28.2 µM (active)
CCCCCC(=O)NNC(=S)NC(=O)c1ccc([N+](=O)[O-])cc1,IC50,Leucine aminopeptidase,49.2 µM (active)
same,IC50,[11],> 66 µM (inactive)
same,CC50,[12],> 40 µM (active)
same,IC50,[13],> 66 µM (inactive)
